Measurements as given in patent US10195156B2, “Compounds and compositions for intracellular delivery of agents” (ModernaTX, Inc., priority 2015, dated 2019).
“Also recorded” adds a separate entry of the source. Like-named read-outs stand apart in the source and are kept apart here. Each block holds one compound with its values, some of them ahead of it.

Key:
IP-10 = experiment: Cytokine production induced by sample formulations: IP-10; type: in vivo; settings: mice, i.v., 0.5 mpk, 6 hours; for IP-10: in pg/mL (unit assumed)
In short: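 Cytokine levels were quantified at 6 hours in mice given the nanoparticle compositions i.v. at 0.5 mpk. MC3 standard formulation and PBS served as comparators.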

[1] = Lipid levels in liver and spleen 48 hours after administration; type: in vivo, rats; settings: for concentration at 48 h: Sprague-Dawley, rat, intravenous
In short: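 Rats (n=3 or 6) received lipid nanoparticle formulations intravenously at 0.2 mg/kg or 0.5 mg/kg. Liver and spleen were harvested and frozen 48 h after dosing, and the lipid amount remaining in each tissue was measured and expressed as a fraction of the dose.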

[2] = tested on: luciferase (Luc) mRNA expression; experiment: Expression of Luc induced by sample formulations, whole-body bioluminescence after intravenous administration; type: in vivo
In short: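 Read-out is whole-body bioluminescence at 3, 6 and 24 h after a single intravenous dose of 0.5 mg/kg Luc mRNA in nanoparticle formulations. Groups of n=6 mice; PBS and standard MC3 formulation as references.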

[3] = tested on: modified luciferase expression; experiment: Expression of Luc in different organs (liver, lung, spleen, femur) 6 hours after intravenous administration; type: in vivo; settings: i.v., 0.5 mpk
Method: The efficacy of the nanoparticle compositions presented in Tables 1, 1a, 17-1, 19-1, 20-1 and 21-1 was further evaluated by measuring the expression of modified luciferase in the liver, lung, spleen, and femur upon administration of a given composition. Formulations were administered intravenously to mice (n=3) at a dosage of 0.5 mpk and bioluminescence measured after 6 hours. The standard MC3 formulation and a PBS control were also tested.

hEPO mRNA expression = experiment: Expression of hEPO in rats after intravenous administration; type: in vivo; settings: for hEPO (pg/mL) 3 hours / hEPO (pg/mL) 6 hours / hEPO (pg/mL) 24 hours: Table 6, 0.2 mg/kg or 0.5 mg/kg; for Lipid/MC3 hEPO S.D. (rats): hEPO expression relative to MC3, S.D. rats, intravenous
Method: PBS (phosphate buffered saline) is used as control.
Formulations were prepared according to Table 5 and included mRNA encoding hEPO.
[…] After the 48 hour time point, livers and spleens were harvested and frozen.

[4] = Concentration of RNA in nanoparticle composition (ultraviolet-visible spectroscopy); type: physicochemical; settings: Table 5, hEPO mRNA
Method: Ultraviolet-visible spectroscopy can be used to determine the concentration of a therapeutic and/or prophylactic agent (e.g., RNA) in nanoparticle compositions. 100 μL of the diluted formulation in 1×PBS is added to 900 μL of a 4:1 (v/v) mixture of methanol and chloroform. After mixing, the absorbance spectrum of the solution is recorded, for example, between 230 nm and 330 nm on a DU 800 spectrophotometer (Beckman Coulter, Beckman Coulter, Inc., Brea, Calif.). The concentration of therapeutic and/or prophylactic agent in the nanoparticle composition can be calculated based on the extinction coefficient of the therapeutic and/or prophylactic agent used in the composition and on the difference between the absorbance at a wavelength of, for example, 260 nm and the baseline value at a wavelength of, for example, 330 nm.

[5] = liver, 48 hours after administration, read-out: Lipid in liver
[6] = spleen, 48 hours after administration, read-out: Lipid in spleen
[7] = liver, 48 hours after administration
[8] = spleen, 48 hours after administration
[9] = Table 2, mice, i.v., 0.5 mg/kg, 3 hours
[10] = Table 17-2, mice, i.v., 0.5 mg/kg
[11] = Table 19-2, mice, i.v., 0.5 mg/kg
[12] = Table 20-2, mice, i.v., 0.5 mg/kg
[13] = Table 21-2, mice, i.v., 0.5 mg/kg

- IP-10 (IP-10; Table 4): 2382
- concentration at 48 h [1, 5]: 16800 ng/g
- concentration at 48 h [1, 6]: 2320 ng/g
- % remaining dose in liver [1, 7]: 23.8%
- % remaining dose in spleen [1, 8]: 0.22%
- Conc. ([4]; 40:20:38.5:1.5 Lipid:DOPE:Chol:PEG-DMG): 320.14 µg/mL
Compound: CCCCCCCCCCCCN(CCCCCCCCCCCC)CCN(CCCCCCCCCCCC)CCN1CCN(CCN(CCCCCCCCCCCC)CCCCCC(=O)OCCCCC)CC1 [Compound 12, Pentyl 6-((2-(4-(2-((2-(didodecylamino)ethyl)(dodecyl)amino)ethyl)piperazin-1-yl)ethyl)(dodecyl)amino)hexanoate]
- Total Flux 3 hours [2, 9]: 1.06E+10
- Total Flux 6 hours ([2]; Table 2, mice, i.v., 0.5 mg/kg): 1.38E+10
- Total Flux 24 hours ([2]; Table 2, mice, i.v., 0.5 mg/kg): 6.03E+08
- Luc expression in mice compared with MC3 (in words) ([2]; Table 7a): significantly lower
- Total Flux Liver ([3]; Table 3, mice, liver): 1.05E+09
- Total Flux Lung ([3]; Table 3, mice): 6.76E+06
- Total Flux Spleen ([3]; Table 3, mice): 1.11E+07
- hEPO (pg/mL) 3 hours (hEPO mRNA expression; rats, i.v.): 592260 pg/mL
- hEPO (pg/mL) 6 hours (hEPO mRNA expression; rats, i.v.): 424740 pg/mL
- hEPO (pg/mL) 24 hours (hEPO mRNA expression; rats, i.v.): 165404 pg/mL
- Lipid/MC3 hEPO S.D. (rats) (hEPO mRNA expression): 0.32

- IP-10 (IP-10; Table 4): 438
- IP-10 (IP-10; Table 17-4): 500
- IP-10 (IP-10; Table 19-4): 323.9
- IP-10 (IP-10; Table 20-4, formula (20-I)): 499.1
- IP-10 induction, rank or comparison with IL-6 (in words) (IP-10): highest IL-6 and IP-10 levels
- concentration at 48 h [1, 5]: 21800 ng/g
- concentration at 48 h [1, 6]: 2780 ng/g
- % remaining dose in liver [1, 7]: 51%
- dose remaining in the liver after 48 hours [1, 7]: approximately 60%
- % dose remainng Rat liver (48 h) ([1]; rat liver, 48 h): 43.11%
- % remaining dose in spleen [1, 8]: 0.44%
- Conc. ([4]; 50:10:38.5:1.5 Lipid:DSPC:Chol:PEG-DMG): 470.45 µg/mL
Compound: CCCCCC=CCC=CCCCCCCCCC(CCCCCCCCC=CCC=CCCCCC)OC(=O)CCCN(C)C (stereo not shown) [MC3, heptatriaconta-6,9,28,31-tetraen-19-yl 4-(dimethylamino)butanoate, reference compound]
- Total Flux 3 hours [2, 9]: 1.63E+10
- Total Flux 6 hours ([2]; Table 2, mice, i.v., 0.5 mg/kg): 1.73E+10
- Total Flux 24 hours ([2]; Table 2, mice, i.v., 0.5 mg/kg): 1.16E+09
- Total Flux 3 hours ([2]; Table 17-2, mice, i.v., 0.5 mg/kg, 3 hours): 1.63E+10
- Total Flux 6 hours [2, 10]: 2.13E+10
- Total Flux 24 hours [2, 10]: 1.01E+09
- Total Flux 3 hours ([2]; Table 19-2, mice, i.v., 0.5 mg/kg, 3 hours): 1.53E+10
- Total Flux 6 hours [2, 11]: 1.73E+10
- Total Flux 24 hours [2, 11]: 1.13E+09
- Total Flux 3 hours ([2]; Table 20-2, mice, i.v., 0.5 mg/kg, 3 hours): 1.73E+10
- Total Flux 6 hours [2, 12]: 1.94E+10
- Total Flux 24 hours [2, 12]: 8.48E+08
- Total Flux 3 hours ([2]; Table 21-2, mice, i.v., 0.5 mg/kg, 3 hours): 1.69E+10
- Total Flux 6 hours [2, 13]: 2.87E+10
- Total Flux 24 hours [2, 13]: 2.23E+10
- total flux after 3 hours, rank within the named table (in words) ([2]; mice, i.v., 0.5 mg/kg, 3 hours): highest after 3 hours
- total flux / Luc expression, rank within the named table (in words) ([2]; mice, i.v., 0.5 mg/kg, each time point): highest total flux; also recorded: highest luciferase expression
- Total Flux Femur ([3]; Table 3, mice): 3.08E+06
- Total Flux Liver ([3]; Table 3, mice, liver): 2.31E+09
- Total Flux Lung ([3]; Table 3, mice): 8.61E+06
- Total Flux Spleen ([3]; Table 3, mice): 1.95E+07
- Total Flux Femur ([3]; Table 17-3, mice): 6.03E+06
- Total Flux Liver ([3]; Table 17-3, mice, liver): 2.75E+09
- Total Flux Lung ([3]; Table 17-3, mice): 7.25E+06
- Total Flux Spleen ([3]; Table 17-3, mice): 2.62E+07
- Total Flux Liver ([3]; Table 19-3, mice, liver): 2.39E+09
- Total Flux Lung ([3]; Table 19-3, mice): 5.83E+06
- Total Flux Spleen ([3]; Table 19-3, mice): 2.45E+07
- Total Flux Femur ([3]; Table 20-3, mice): 2.60E+06
- Total Flux Liver ([3]; Table 20-3, mice, liver): 2.48E+09
- Total Flux Lung ([3]; Table 20-3, mice): 1.28E+07
- Total Flux Spleen ([3]; Table 20-3, mice): 2.85E+07
- Total Flux Liver ([3]; Table 21-3, mice, liver): 3.05E+09
- Total Flux Lung ([3]; Table 21-3, mice): 6.60E+06
- Total Flux Spleen ([3]; Table 21-3, mice): 4.73E+07
- total flux in organs, rank or organ comparison (in words) ([3]; mice, each organ or overall, 0.5 mg/kg): highest total flux; also recorded: highest expression in each organ
- total flux in the liver, rank within the named table (in words) ([3]; mice, liver): highest
- hEPO (pg/mL) 3 hours (hEPO mRNA expression; rats, i.v.): 1407947 pg/mL
- hEPO (pg/mL) 6 hours (hEPO mRNA expression; rats, i.v.): 1036013 pg/mL
- hEPO (pg/mL) 24 hours (hEPO mRNA expression; rats, i.v.): 436243 pg/mL
- AUC (0.1 mpk) (hEPO mRNA expression; hEPO expression in S.D. rats, 0.1 mpk): 1.62E+06
- AUC (1 mpk) (hEPO mRNA expression; hEPO expression in S.D. rats, 1 mpk): 1.17E+08
- Lipid/MC3 hEPO S.D. (rats) (hEPO mRNA expression): 1
- hEPO expression in rats, comparison (in words) (hEPO mRNA expression; rats, i.v., 0.2 or 0.5 mg/kg, Tables 6, 7a): highest hEPO expression at each time point
